Key:
[1] = tested on: D.T.H. response in mice immunized with SRBC as antigen; assay: D.T.H. footpad test in mice immunized with SRBC, Examples 3-6 (dosages per mouse); format: in vivo; settings: for Degree of swelling: control = 100; for Degree of swelling, Intraperitoneal injection / Degree of swelling, Oral administration: Table 5
Method: The effect of (2S,3R)-AHPA on cell-mediated immunity was tested in the same way in Example 2, namely according to the D.T.H. technique using mice immunized with sheep red blood cell as antigen. Thus, a suspension of 10^8 sheep red blood cells in 0.05 ml of physiological saline were subcutaneously injected at the time of immunization into the right hind footpad of each CDF1 -mouse under test (female, 8 weeks-aged, 5 mice in each group) to establish D.T.H. […] The degree of swelling was evaluated. By way of comparison, bestatin was tested in the same way as above. […] The effect of (2S,3R)-AHPA on the D.T.H. response was estimated in the same manner as in the above procedure (A) of Example 3 by orally administering 1 mcg/mouse, 0.1 mcg/mouse or 0.01 mcg/mouse of (2S,3R)-AHPA to each mouse under test. […] The effect of the mode of administering (2S,3R)-AHPA on the D.T.H. response was estimated in the same manner as in the procedure (A) of Example 3, except that the test compound (as aqueous solution) was injected intraperitoneally in stead of being given orally.

ICR-strain mice = assay: acute toxicity, intraperitoneal, ICR-strain mice; format: in vivo, mouse; settings: dosage of 100 mg/kg
Source text: In order to estimate the acute toxicity of the compound of the formula (VIII) or (IIId), some of the test compound was intraperitoneally given to ICR-strain mice (in groups each consisting of 6 mice, male, 5 weeks-aged, average body weight 20 g.), when all the tested mice tolerated intraperitoneal administration of (2S,3R)-APHA; (2S)-2-N-[(2'S,3'R)-3'-amino-2'-hydroxy-4'-phenyl-butanoyl]amino-4-methyl- pentanol; (2S)-2-N-[(2'S,3'R)-3'-amino-2'-hydroxy-4'-phenylbutanoyl-(S)-leucyl]amino-4-methyl-pentanol; (2S,3R)-3-amino-2-hydroxy-4-phenylbutanoyl-(S)-leucyl-(S)-leucine; (2S,3R)-3-amino-2-hydroxy-4-phenyl-butanoyl-(S)-leucyl-(S)-arginine; (2S,3R)-3-amino-2-hydroxy-4-phenylbutanoyl-(S)-leucyl-(S)-asparagine; (2R,3R)-3-amino-2-hydroxy-4-phenylbutanoyl-(S)-leucyl-(R)-asparagine; and (2S,3R)-3-amino-2-hydroxy-4-phenylbutanoyl-(S)-leucyl-(R)-arginine at a dosage of 100 mg/kg.

aminopeptidase B = target: T1, aminopeptidase B (Rattus norvegicus, UniProt O09175); settings: Journal of Medicinal Chemistry Vol. 20, No.4, pp. 510-515 (1977); cited from earlier work
T1 sequence (O09175 1-650): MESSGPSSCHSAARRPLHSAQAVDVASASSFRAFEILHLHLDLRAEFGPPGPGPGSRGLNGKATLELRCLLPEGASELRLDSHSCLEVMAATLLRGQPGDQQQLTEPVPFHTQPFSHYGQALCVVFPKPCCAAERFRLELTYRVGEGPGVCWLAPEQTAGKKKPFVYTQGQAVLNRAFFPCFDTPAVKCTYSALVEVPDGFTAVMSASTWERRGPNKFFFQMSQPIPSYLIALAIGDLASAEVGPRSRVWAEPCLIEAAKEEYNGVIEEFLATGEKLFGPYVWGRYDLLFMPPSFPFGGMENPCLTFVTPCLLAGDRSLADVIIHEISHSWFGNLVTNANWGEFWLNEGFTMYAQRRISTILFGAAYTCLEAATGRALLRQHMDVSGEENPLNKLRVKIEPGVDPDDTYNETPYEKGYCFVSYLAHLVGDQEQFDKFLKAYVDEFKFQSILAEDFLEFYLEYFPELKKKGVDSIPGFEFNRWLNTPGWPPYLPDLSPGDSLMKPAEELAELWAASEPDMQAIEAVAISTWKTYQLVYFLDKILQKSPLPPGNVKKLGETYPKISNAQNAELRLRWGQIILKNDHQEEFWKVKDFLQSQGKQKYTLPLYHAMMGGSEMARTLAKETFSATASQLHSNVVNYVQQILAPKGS

N[C@H](Cc1ccccc1)[C@H](O)C(=O)O [(2S,3R)-AHPA]
Increase in thickness of footpad (± S.D.) ([1]; Table 3, oral 0.01 mcg/mouse): 10.6 ± 1.17 × 0.1 mm | Degree of swelling ([1]; Table 3, oral 0.01 mcg/mouse): 134% | Increase in thickness of footpad (± S.D.) ([1]; Table 3, oral 0.1 mcg/mouse): 11.6 ± 1.85 × 0.1 mm | Degree of swelling ([1]; Table 3, oral 0.1 mcg/mouse): 147% | Increase in thickness of footpad (± S.D.) ([1]; Table 3, oral 1 mcg/mouse): 11.9 ± 0.97 × 0.1 mm | Degree of swelling ([1]; Table 3, oral 1 mcg/mouse): 151% | Increase in thickness of footpad (± S.D.) ([1]; Table 3, oral 10 mcg/mouse): 10.9 ± 0.57 × 0.1 mm | Degree of swelling ([1]; Table 3, oral 10 mcg/mouse): 138% | Increase in thickness of footpad (± S.D.) ([1]; Table 4, oral 0.01 mcg/mouse): 10.1 ± 1.52 × 0.1 mm | Degree of swelling ([1]; Table 4, oral 0.01 mcg/mouse): 125% | Increase in thickness of footpad (± S.D.) ([1]; Table 4, oral 0.1 mcg/mouse): 11.1 ± 0.82 × 0.1 mm | Degree of swelling ([1]; Table 4, oral 0.1 mcg/mouse): 137% | Increase in thickness of footpad (± S.D.) ([1]; Table 4, oral 1 mcg/mouse): 10.8 ± 1.29 × 0.1 mm | Degree of swelling ([1]; Table 4, oral 1 mcg/mouse): 133% | Degree of swelling, Intraperitoneal injection ([1]; intraperitoneal 1 mcg/mouse): 143% | Degree of swelling, Intraperitoneal injection ([1]; intraperitoneal 10 mcg/mouse): 128% | Degree of swelling, Oral administration ([1]; oral 1 mcg/mouse): 135% | Degree of swelling, Oral administration ([1]; oral 10 mcg/mouse): 126% | Increase in thickness of footpad (± S.D.) ([1]; Table 7, oral 1 mcg/mouse): 11.7 ± 1.29 × 0.1 mm | Degree of swelling ([1]; Table 7, oral 1 mcg/mouse): 135% | Increase in thickness of footpad (± S.D.) ([1]; Table 7, oral 10 mcg/mouse): 11.0 ± 1.05 × 0.1 mm | Degree of swelling ([1]; Table 7, oral 10 mcg/mouse): 126% | enhancement of cell-mediated immunity compared with bestatin ([1]; intraperitoneal injection or oral administration): enhances the cell-mediated immunity as much as or much more than bestatin | immunopotentiating activity compared with bestatin ([1]; oral 0.01 to 10 mcg/mouse versus bestatin oral 1 to 10 mcg/mouse): exhibits the immunopotentiating activity as high as bestatin | enhancement of D.T.H. response compared with bestatin ([1]; oral, dosages lower than 1 mcg/mouse): enhances the D.T.H. response much more than bestatin | enhancement of cell-mediated immunity ([1]; oral, low dosage of 0.01 mcg/mouse): active to enhance the cell-mediated immunity | acute toxicity: tolerance of intraperitoneal administration (ICR-strain mice): tolerated | inhibitory activity to aminopeptidase B (aminopeptidase B): weak inhibitory activity | solubility in water (solubility in water): soluble in water
